Measurements from the NIST ThermoML archive (doi:10.1016/j.jct.2017.06.001).

Experiment: xn = mol fraction of the nth substance listed
Conditions: 313.15 K, 100 kPa, Liquid; for speed of sound: Frequency=5 MHz, Pulse-echo method; for mass density: Vibrating tube method

OCCCCCO [1,5-pentanediol] + O
Conditions | mass density [kg/m3] | speed of sound [m/s]
x1 = 0.005 | 991.7 | –
x1 = 0.0101 | 991.52 | –
x1 = 0.0196 | 991.54 | –
x1 = 0.0251 | 991.82 | –
x1 = 0.0304 | 992.13 | –
x1 = 0.05 | 992.81 | –
x1 = 0.0769 | 993.24 | –
x1 = 0.1002 | 993.63 | –
x1 = 0.1124 | – | 1653.6
x1 = 0.1158 | – | 1654.3
x1 = 0.1193 | – | 1654.9
x1 = 0.1244 | – | 1655.7
x1 = 0.1287 | – | 1656.2
x1 = 0.1321 | – | 1656.6
x1 = 0.1361 | – | 1656.9
x1 = 0.1413 | – | 1657.3
x1 = 0.1438 | 993.61 | –
x1 = 0.1453 | – | 1657.5
x1 = 0.1493 | – | 1657.7
x1 = 0.1538 | – | 1657.8
x1 = 0.1569 | – | 1657.8
x1 = 0.1592 | – | 1657.9
x1 = 0.1624 | – | 1657.9
x1 = 0.1645 | – | 1657.9
x1 = 0.1677 | – | 1657.8
x1 = 0.1703 | – | 1657.8
x1 = 0.174 | – | 1657.7
x1 = 0.1785 | – | 1657.6
x1 = 0.1796 | – | 1657.5
x1 = 0.1845 | 993.02 | –
x1 = 0.1854 | – | 1657.3
x1 = 0.1882 | – | 1657.2
x1 = 0.1986 | – | 1656.6
x1 = 0.2089 | – | 1656
x1 = 0.2219 | – | 1655
x1 = 0.2336 | – | 1654.1
x1 = 0.2458 | – | 1653
x1 = 0.2503 | 991.87 | –
x1 = 0.2586 | – | 1651.8
x1 = 0.2742 | – | 1650.3
x1 = 0.2871 | – | 1649
x1 = 0.3037 | – | 1647.3
x1 = 0.3173 | – | 1645.8
x1 = 0.3466 | – | 1642.6
x1 = 0.366 | – | 1640.3
x1 = 0.3864 | – | 1637.9
x1 = 0.401 | – | 1636.1
x1 = 0.4198 | – | 1633.7
x1 = 0.4339 | – | 1631.8
x1 = 0.4516 | – | 1629.5
x1 = 0.4639 | – | 1627.8
x1 = 0.4723 | – | 1626.7
x1 = 0.4915 | – | 1624
x1 = 0.5111 | – | 1621.3
x1 = 0.5315 | – | 1618.4
x1 = 0.5529 | – | 1615.4
x1 = 0.5804 | – | 1611.5
x1 = 0.602 | – | 1608.5
x1 = 0.6163 | – | 1606.5
x1 = 0.6349 | – | 1604
x1 = 0.6533 | – | 1601.5
x1 = 0.6749 | – | 1598.6
x1 = 0.6932 | – | 1596.3
x1 = 0.7095 | – | 1594.2
x1 = 0.7237 | – | 1592.4
x1 = 0.7448 | – | 1589.9
x1 = 0.7666 | – | 1587.3
x1 = 0.794 | – | 1584.1
x1 = 0.8188 | – | 1581.3
x1 = 0.8485 | – | 1578
x1 = 0.875 | – | 1575.1
x1 = 0.9027 | – | 1572.1
x1 = 0.9251 | – | 1569.5
x1 = 0.9471 | – | 1566.9
x1 = 0.9652 | – | 1564.7
x1 = 0.9777 | – | 1563.1
x1 = 0.9877 | – | 1561.8
x1 = 0.9953 | – | 1560.8
x1 = 1 | – | 1560.2
